Reference: publication PMC3089805 (Chemmedchem, 2010)
≈ marks a conversion by molar mass, not a printed value. Like-named read-outs stand apart in the source and are kept apart here.

Experiments:
S. aureus (MRSA) = experiment: MIC determination, liquid microdilution, S. aureus; assay type: cell-based; details: Staphylococcus aureus, read-out: MIC S. aureus (MRSA)
H. pylori strain 26695 = experiment: MIC determination, liquid microdilution, H. pylori; assay type: cell-based; details: Helicobacter pylori, 26695, 27 h, read-out: MIC H. pylori
[1] = Human foreskin cell toxicity; assay type: cell-based; details: human, human foreskin cells
Human foreskin cells = experiment: Human foreskin cell toxicity; assay type: cell-based
C. jejuni strain H840 = experiment: MIC determination, liquid microdilution, C. jejuni; assay type: cell-based; details: Campylobacter jejuni, H840, 27 h, read-out: MIC C. jejuni
S. epidermidis = experiment: MIC determination, liquid microdilution, S. epidermidis; assay type: cell-based; details: Staphylococcus epidermidis, read-out: MIC S. epidermidis
H. pylori PFOR enzyme = experiment: Direct PFOR enzyme assay; assay type: biochemical; details: [Drug] = 40 μM
C. difficile VPI 10463 = experiment: MIC determination, agar dilution, C. difficile; assay type: cell-based, Clostridium difficile; details: Clostridioides difficile, VPI10463, 18 h, read-out: MIC C. difficile
E. coli = experiment: MIC against E. coli; assay type: cell-based; details: Escherichia coli

MIC (S. aureus (MRSA)) [µM]	MIC (H. pylori strain 26695) [µM]	MIC (C. jejuni strain H840) [µM]	MIC (S. epidermidis) [µM]	PFOR Inhibition (H. pylori PFOR enzyme) [%]	MIC (C. difficile VPI 10463) [µM]	MIC (E. coli; read-out: E. coli MIC) [µM]	MIC (E. coli; read-out: E. coli MIC, stated in text) [µg/mL]	PFOR Inhibition (H. pylori PFOR enzyme; listed as 1, 40 µM) [%]	SMILES	CC50 at 48 h [1] [µM]	toxicity to human foreskin cells (in words) (Human foreskin cells)	PFOR Inhibition (H. pylori PFOR enzyme; listed as NTZ, 40 µM)
2.6 (≈ 1 µg/mL)	5.2 (≈ 2 µg/mL)	41.5 (≈ 16 µg/mL)	1.9 (≈ 0.732 µg/mL)						O=C(Nc1ncc([N+](=O)[O-])s1)c1cc(C(F)(F)F)cc(C(F)(F)F)c1 [Analogue 38, N-(5-Nitrothiazol-2-yl)-3,5-bis(trifluoromethyl)benzamide]	10.4	particularly toxic	
	3.5 (≈ 1.11 µg/mL)	4.7 (≈ 1.49 µg/mL)	12.6 (≈ 4 µg/mL)	41.5 ± 5.5	0.5 (≈ 0.159 µg/mL)				O=C(Nc1ncc([N+](=O)[O-])s1)c1cccc(C(F)(F)F)c1 [Analogue 23, N-(5-Nitrothiazol-2-yl)-3-(trifluoromethyl)benzamide]	> 50.4	not toxic	
2.8 (≈ 0.985 µg/mL)	2.8 (≈ 0.985 µg/mL)	2.8 (≈ 0.985 µg/mL)	2.8 (≈ 0.985 µg/mL)	33 ± 1	1.4 (≈ 0.492 µg/mL)				O=C(Nc1ncc([N+](=O)[O-])s1)c1ccc(Cl)c(C(F)(F)F)c1 [Analogue 41, 4-Chloro-N-(5-nitrothiazol-2-yl)-3-(trifluoromethyl)benzamide]	> 45.5		
39.1 (≈ 12 µg/mL)	13 (≈ 3.99 µg/mL)	39.1 (≈ 12 µg/mL)	52.1 (≈ 16 µg/mL)		1.2 (≈ 0.369 µg/mL)	> 104	> 32	54 ± 7	CC(=O)Oc1ccccc1C(=O)Nc1ncc([N+](=O)[O-])s1 [Nitazoxanide, reference compound]	> 52.1		[c] For PFOR inhibition assays, drug concentration was fixed at 40 μM which bench marks NTZ at ~50% inhibition.
